pIC50: −log10 of the molar value.
Columns and labels:
[1] = target: TEAD1 protein (YAP Binding Domain) (Homo sapiens, UniProt P28347); assay: biochemical
Protocol: Compound Displacement Assay.
A TEAD1 lipid pocket displacement assay was carried out according to the following protocol. Purified His-tagged TEAD1 protein (YAP Binding Domain) was pre-mixed with a Cy5-probe (Cy5-conjugated to a small molecule that binds in the TEAD1 lipid pocket) and Terbium-labeled anti-His antibody (Cisbio Cat 61HI2TLB). The binding of the Cy5-probe to anti-His-Tb/His-tag TEAD1 complex yielded a TR-FRET signal. […] After 60 minutes incubation at room temperature of compounds with the His-TEAD1/anti-His-Tb/Cy5-probe complex, the plate was read on a plate reader (BMG ClarioStar Cat 430-1300) using TR-FRET mode with wavelengths of 665 nm/620 nm. The potency of compounds as TEAD1 lipid pocket binders was determined by IC50 value generated using a non-linear 4 parameter curve fit.

[2] = tested on: mesothelioma cell line NCI-H226; assay: 72H TEAD Proliferation Assay (Cell Titer-Glo 2.0); format: cell-based; details: Homo sapiens, CTG 2.0, cell line not given in Table 1 (NCI-H226 TEAD-responsive, NCI-H28 non-responsive counter-screen)
Protocol: 72H TEAD Proliferation Assay.
The effect of TEAD inhibition on cell proliferation was assayed using Cell Titer Glo (CTG) 2.0 to measure response in mesothelioma cell lines NCI-H226 (ATCC, #CRL-5826) and NCI-H28 (ATCC, #CRL-5820).
The 72H TEAD Proliferation assay utilizes Cell Titer-Glo 2.0 (Promega, #G9243) to measure the proliferation of cells in the presence or absence of compound. Cell Titer-Glo 2.0 determines the amount of viable cells by quantifying ATP (an indication of metabolically active cells). It utilizes the conversion of Luciferin to Oxyluciferin and a luminescent signal with the use of ATP to report the quantity of viable cells in culture. Within cells that are continually growing, ATP is being synthesized to meet their metabolic demands, meanwhile the opposite is true for cells that are dying or slowing down their proliferation and either no longer using ATP or are using less, respectively. The NF2-deficient NCI-H226 has been genetically validated as a cell line that is sensitive to TEAD inhibition. The NF2-wild type NCI-H28 has been genetically validated as a cell line that is not sensitive to TEAD inhibition and grows independently of TEAD activity.
Compounds were screened against the responsive NCI-H226 cell line to assess the compounds' ability to inhibit TEAD and cell growth. Compounds were also screened against the non-responsive NCI-H28 cell line to ascertain whether the inhibition of cell growth was due to inhibition of the target TEAD or whether the inhibition was due to off-target cytotoxicity.
Both NCI-H226 and NCI-H28 cells were grown at 37° C. with 5% CO2 using Growth Medium 1.
Anti-proliferative effect of compounds that inhibits TEAD activity measured by CTG
1) Assay ready plates (ARPs) were prepared by Echo acoustic liquid handler. For each compound, duplicate of 10-point half-log dilution series were dispensed in a 384-well microplate (Corning 3571).
3) Before use, ARPs were allowed to warm up to room temperature for 30 min.
4) ARPs were spun for 5 minutes at 1500RPM before removing the plate seals.
5) NCI-H226 or NCI-H28 cells were harvested from culture in Assay Medium 1 and the multidrop Combi reagent dispenser was used to seed cells at 500 cells per 50ul in each well of the ARPs and one Corning 3571 plate without compounds for Time 0 (TO) readout.
6) The TO plate was incubated for 2 hours at 37° C. with 5% CO2 to allow cells to settle, then the CTG Assay was performed.
7) All ARPs were incubated for 72 hours at 37° C. with 5% CO2, then the CTG Assay was performed for Time 72H (T72) readout.
8) CTG Assay: Bravo liquid handler (Agilent) was used to add 25ul of CTG 2.0 to all columns of the plate except for Column 24, which was used to subtract out the background. After CTG addition, plates were placed on shaker at 800RPM for 15 minutes at room temperature and kept in the dark. Luminescence was measured using EnVision multilabel plate reader with ultra-sensitive detection module.
9) Data Analysis: First background luminescence (no CTG wells) was subtracted from luminescence reading of all wells, then TO luminescence was subtracted from T72 luminescence. To compare anti-proliferative effect of compounds, GI50 was obtained by fitting dose response curves with nonlinear regression curve fit.

Sequence of TEAD1 protein (YAP Binding Domain) (P28347 167-426 limits assumed): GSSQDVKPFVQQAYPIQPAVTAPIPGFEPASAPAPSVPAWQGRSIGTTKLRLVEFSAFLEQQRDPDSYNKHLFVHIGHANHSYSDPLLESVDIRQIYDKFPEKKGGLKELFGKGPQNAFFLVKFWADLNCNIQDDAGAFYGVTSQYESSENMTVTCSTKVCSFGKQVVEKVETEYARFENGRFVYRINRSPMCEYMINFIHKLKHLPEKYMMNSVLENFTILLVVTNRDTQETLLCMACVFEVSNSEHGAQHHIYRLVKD

Compound | pIC50 [1] | GI50 [2] [nM]
C[C@H](CO)NC(=O)c1ccc2c(-c3ccc(C(F)(F)F)cc3)[nH]c(=O)cc2c1 [I″-56] | < 6.30 | > 5000
CC[C@H](CO)NC(=O)c1cnc2c(N3CCC(C(F)(F)F)CC3)cc(OC)cc2c1 [Compound I-13, (R)-N-(1-hydroxybutan-2-yl)-6-methoxy-8-(4-(trifluoromethyl)piperidin-1-yl)quinoline-3-carboxamide] | > 6.82 | ≤ 500
O=C(O)c1ccc2c(N3CCC(C(F)(F)F)CC3)cccc2c1 [Compound I-57, 5-(4-(Trifluoromethyl)piperidin-1-yl)-2-naphthoic acid] | 6.52 to 6.82 | > 5000
COc1cc(N2CCC(C(F)(F)F)CC2)c2ncc(C(=O)N[C@@H](C)C(=O)O)cc2c1 [Compound I-41, (6-methoxy-8-(4-(trifluoromethyl)piperidin-1-yl)quinoline-3-carbonyl)-L-alanine] | 6.52 to 6.82 | > 5000
C[C@H](CO)NC(=O)c1cnc2c(N3CCC4(CC3)CC4)cc(OC3CC3)cc2c1 [Compound I-25, (R)-6-cyclopropoxy-N-(1-hydroxypropan-2-yl)-8-(6-azaspiro[2.5]octan-6-yl)quinoline-3-carboxamide] | < 6.30 | 1000 to 5000
COC[C@H](C)NC(=O)c1cnc2c(N3CCC(C(F)(F)F)CC3)cc(OC3CC3)cc2c1 [Compound I-26, (S)-6-cyclopropoxy-N-(1-methoxypropan-2-yl)-8-(4-(trifluoromethyl)piperidin-1-yl)quinoline-3-carboxamide] | 6.30 to 6.52 | 500 to 1000
C[C@H](NC(=O)c1ccc2c(N3CCC(C(F)(F)F)CC3)cccc2c1)c1ccccn1 [Compound I-58, (S)-N-(1-(pyridin-2-yl)ethyl)-5-(4-(trifluoromethyl)piperidin-1-yl)-2-naphthamide] | > 6.82 | ≤ 500
C[C@H](CO)NC(=O)c1cnc2c(N3CCC(C(F)(F)F)CC3)cccc2c1 [Compound I-60, (R)-N-(1-hydroxypropan-2-yl)-8-(4-(trifluoromethyl)piperidin-1-yl)quinoline-3-carboxamide] | 6.52 to 6.82 | 500 to 1000
COc1cc(N2CCC(C(F)(F)F)CC2)c2ncc(C(=O)NC(C)C)cc2c1 [Compound I-38, N-isopropyl-6-methoxy-8-(4-(trifluoromethyl)piperidin-1-yl)quinoline-3-carboxamide] | 6.52 to 6.82 | ≤ 500
C[C@H](CO)NC(=O)c1ccc2c(N3CCC(C(F)(F)F)CC3)cccc2c1 [Compound I-59, (R)-N-(1-hydroxypropan-2-yl)-5-(4-(trifluoromethyl)piperidin-1-yl)-2-naphthamide] | 6.52 to 6.82 | ≤ 500
CC(CO)NC(=O)c1ccc2c(OCC3CCC(F)(F)CC3)cccc2c1 (stereo not drawn) [Compound I-22, 5-((4,4-Difluorocyclohexyl)methoxy)-N-(1-hydroxypropan-2-yl)-2-naphthamide] | 6.52 to 6.82 | ≤ 500
COc1cc(N2CCC(C(F)(F)F)CC2)c2ncc(C(=O)N[C@@H](CO)C(C)(C)C)cc2c1 [Compound I-40, (R)-N-(1-hydroxy-3,3-dimethylbutan-2-yl)-6-methoxy-8-(4-(trifluoromethyl)piperidin-1-yl)quinoline-3-carboxamide] | 6.52 to 6.82 | 500 to 1000
C[C@H](NC(=O)c1ccc2c(N3CCC(C(F)(F)F)CC3)nccc2c1)c1ccccn1 [Compound I-51, (S)-N-(1-(Pyridin-2-yl)ethyl)-1-(4-(trifluoromethyl)piperidin-1-yl)isoquinoline-6-carboxamide] | > 6.82 | ≤ 500
COc1cc(N2CCC3(CCCC3)CC2)c2ncc(C(=O)N[C@H](C)CO)cc2c1 [Compound I-4, (R)-N-(1-hydroxypropan-2-yl)-6-methoxy-8-(8-azaspiro[4.5]decan-8-yl)quinoline-3-carboxamide] | 6.52 to 6.82 | 500 to 1000
COc1cc(N2CCC3(CC2)CC(F)(F)C3)c2ncc(C(=O)N[C@H](C)CO)cc2c1 [Compound I-6, (R)-8-(2,2-difluoro-7-azaspiro[3.5]nonan-7-yl)-N-(1-hydroxypropan-2-yl)-6-methoxyquinoline-3-carboxamide] | > 6.82 | 500 to 1000
COC[C@H](C)NC(=O)c1cnc2c(N3CCC(C(F)(F)F)CC3)cc(OC(F)F)cc2c1 [Compound I-28, (S)-6-(difluoromethoxy)-N-(1-methoxypropan-2-yl)-8-(4-(trifluoromethyl)piperidin-1-yl)quinoline-3-carboxamide] | 6.52 to 6.82 | 500 to 1000
COc1ccc2c(N3CCC(C(F)(F)F)CC3)nc(C(=O)O)cc2c1 [Compound 68, 6-methoxy-1-(4-(trifluoromethyl)piperidin-1-yl)isoquinoline-3-carboxylic acid] | < 6.30 | > 5000
CCOc1cc2cc(C(=O)N[C@H](C)CO)ccc2c(N2CCC(C(F)(F)F)CC2)n1 [Compound I-62, (R)-3-ethoxy-N-(1-hydroxypropan-2-yl)-1-(4-(trifluoromethyl)piperidin-1-yl)isoquinoline-6-carboxamide] | > 6.82 | ≤ 500
C[C@H](CO)NC(=O)c1ccc2c(N3CCC(C(F)(F)F)CC3)nc(C(F)(F)F)cc2c1 [Compound I-52, (R)-N-(1-hydroxypropan-2-yl)-3-(trifluoromethyl)-1-(4-(trifluoromethyl)piperidin-1-yl)isoquinoline-6-carboxamide] | > 6.82 | ≤ 500
COc1cc(-c2ccc(OC3CC3)cc2)c2ncc(C(=O)N[C@H](C)CO)cc2c1 [Compound I-20, (R)-8-(4-cyclopropoxyphenyl)-N-(1-hydroxypropan-2-yl)-6-methoxyquinoline-3-carboxamide] | > 6.82 | ≤ 500
CC[C@H](CO)NC(=O)c1ccc2c(-c3ccc(C(F)(F)F)cc3)nc(OC)cc2c1 [I″-53, (R)-N-(1-hydroxybutan-2-yl)-3-methoxy-1-(4-(trifluoromethyl)phenyl)isoquinoline-6-carboxamide] | > 6.82 | ≤ 500
COc1cc2cc(C(=O)N[C@@H](C)c3ccccn3)ccc2c(N2CCC(C(F)(F)F)CC2)n1 [Compound I-64, (S)-3-methoxy-N-(1-(pyridin-2-yl)ethyl)-1-(4-(trifluoromethyl)piperidin-1-yl)isoquinoline-6-carboxamide] | > 6.82 | ≤ 500
COc1cc(N2CCC(C(F)(F)F)CC2)c2ncc(C(=O)N3CC(O)C3)cc2c1 [Compound I-11, (3-hydroxyazetidin-1-yl)(6-methoxy-8-(4-(trifluoromethyl)piperidin-1-yl)quinolin-3-yl)methanone] | < 6.30 | 1000 to 5000
COc1cc(N2CCC(C(F)(F)F)CC2)c2ncc(C(=O)N[C@@H](CO)C3CC3)cc2c1 [Compound I-36] | 6.52 to 6.82 | 500 to 1000
COc1cc(-c2ccc(OC(F)(F)F)cc2)c2ncc(C(=O)N[C@H](C)CO)cc2c1 [Compound I-15, (R)-N-(1-hydroxypropan-2-yl)-6-methoxy-8-(4-(trifluoromethoxy)phenyl)quinoline-3-carboxamide] | > 6.82 | ≤ 500
COc1cc(N2CCC(C(F)(F)F)CC2)c2ncc(C(=O)N[C@H](C)C(=O)O)cc2c1 [Compound I-42, (6-Methoxy-8-(4-(trifluoromethyl)piperidin-1-yl)quinoline-3-carbonyl)-D-alanine] | 6.52 to 6.82 | > 5000
COC[C@H](C)NC(=O)c1cnc2c(N3CCC(C(F)(F)F)CC3)cc(OC(F)(F)F)cc2c1 [Compound I-23, (S)-N-(1-methoxypropan-2-yl)-6-(trifluoromethoxy)-8-(4-(trifluoromethyl)piperidin-1-yl)quinoline-3-carboxamide] | 6.30 to 6.52 | 1000 to 5000

Reference: patent US20230053649A1 (Cedilla Therapeutics, Inc., priority 2021, published 2023)
